Results as given in ChEMBL document CHEMBL1208750, “Synthesis, larvicidal activity, and SAR studies of new benzoylphenylureas containing oxime ether and oxime ester group” (2010).
Values after ≈ are worked out from the molar mass of the structure shown.

Tests used:
Format in all cases: functional
Mythimna separata [1] = experiment: Larvicidal activity against Oriental armyworm at 100 mg/L
Mythimna separata [2] = experiment: Larvicidal activity against Oriental armyworm at 25 mg/L
Mythimna separata [3] = experiment: Larvicidal activity against Oriental armyworm at 50 mg/L
Mythimna separata [4] = experiment: Larvicidal activity against Oriental armyworm at 2.5 mg/L
Mythimna separata [5] = experiment: Larvicidal activity against Oriental armyworm at 10 mg/L
Aedes aegypti [6] = experiment: Larvicidal activity against mosquito larvae at 0.1 mg/L
Aedes aegypti [7] = experiment: Larvicidal activity against mosquito larvae at 1 mg/L
Mythimna separata [8] = experiment: Larvicidal activity against Oriental armyworm at 5 mg/L
Aedes aegypti [9] = experiment: Larvicidal activity against mosquito larvae at 0.25 mg/L
Aedes aegypti [10] = experiment: Larvicidal activity against mosquito larvae at 0.5 mg/L
Mythimna separata [11] = experiment: Larvicidal activity against Oriental armyworm at 1 mg/L
Aedes aegypti [12] = experiment: Larvicidal activity against mosquito larvae at 0.01 mg/L
Aedes aegypti [13] = experiment: Larvicidal activity against mosquito larvae at 0.001 mg/L
Aedes aegypti [14] = experiment: Larvicidal activity against mosquito larvae at 0.005 mg/L
Aedes aegypti [15] = experiment: Larvicidal activity against mosquito larvae at 0.0025 mg/L
Aedes aegypti [16] = experiment: Larvicidal activity against mosquito larvae at 0.0001 mg/L
Aedes aegypti [17] = experiment: Larvicidal activity against mosquito larvae at 0.05 mg/L
Aedes aegypti [18] = experiment: Larvicidal activity against mosquito larvae at 0.025 mg/L
Mythimna separata [19] = experiment: Larvicidal activity against Oriental armyworm at 200 mg/L
Aedes aegypti [20] = experiment: Larvicidal activity against mosquito larvae at 2 mg/L
Spodoptera exigua = experiment: Larvicidal activity against beet armyworm
Plutella xylostella = experiment: Larvicidal activity against diamondback moth
Mythimna separata [21] = experiment: Larvicidal activity against Oriental armyworm at 0.5 mg/L
Ostrinia nubilalis = experiment: Larvicidal activity against corn Borer
Mythimna separata [22] = experiment: Larvicidal activity against Oriental armyworm at 0.25 mg/L
Aedes aegypti [23] = experiment: Larvicidal activity against mosquito larvae at 0.00025 mg/L
Mythimna separata [24] = experiment: Larvicidal activity against Oriental armyworm at 0.125 mg/L

| SMILES | Activity (Mythimna separata [2]) | Activity (Mythimna separata [3]) | Activity (Mythimna separata [4]) | Activity (Mythimna separata [5]) | Activity (Aedes aegypti [6]) | Activity (Mythimna separata [8]) | Activity (Aedes aegypti [9]) | Activity (Aedes aegypti [10]) | Activity (Mythimna separata [11]) | Activity (Aedes aegypti [12]) | Activity (Mythimna separata [21]) | further results |
| --- | --- | --- | --- | --- | --- | --- | --- | --- | --- | --- | --- | --- |
| CC(C)(C)O/N=C/c1cccc(NC(=O)NC(=O)c2c(F)cccc2F)c1 | 90% | 100% |  |  |  |  |  |  |  |  |  | Activity (Mythimna separata [1]): 100% |
| O=C(NC(=O)c1c(F)cccc1F)Nc1ccc(/C=N/OC(=O)c2ccccc2)cc1 | 90% |  | 0% | 80% | 30% | 40% | 80% | 100% |  |  |  | Activity (Aedes aegypti [7]): 100% |
| O=C(NC(=O)c1c(F)cccc1F)Nc1ccc(/C=N/Oc2ccc(Br)cc2)cc1 | 100% | 90% | 90% | 100% |  | 90% |  |  | 0% | 100% |  | Activity (Aedes aegypti [13]): 0%; Activity (Aedes aegypti [14]): 100%; Activity (Aedes aegypti [15]): 40%; Activity (Aedes aegypti [16]): 90% |
| CC(C)O/N=C(\C#N)c1ccc(NC(=O)NC(=O)c2c(F)cccc2F)cc1 |  | 100% | 0% | 80% | 100% | 40% | 100% |  |  | 0% |  | Activity (Aedes aegypti [17]): 50%; Activity (Aedes aegypti [18]): 10% |
| CC(=O)O/N=C/c1ccc(NC(=O)NC(=O)c2c(F)cccc2F)cc1 | 10% | 20% |  | 0% |  |  | 0% | 20% |  |  |  | Activity (Mythimna separata [19]): 100%; Activity (Mythimna separata [1]): 50%; Activity (Aedes aegypti [7]): 100%; Activity (Aedes aegypti [20]): 100% |
| O=C(NC(=O)c1c(F)cccc1F)Nc1ccc(/C=N/Oc2ccccc2)cc1 | 40% |  |  | 20% |  | 0% |  |  |  | 100% |  | Activity (Mythimna separata [19]): 100%; Activity (Mythimna separata [1]): 100%; Activity (Aedes aegypti [14]): 20%; Activity (Aedes aegypti [15]): 10%; Activity (Aedes aegypti [18]): 100% |
| Cc1cccc(O/N=C/c2ccc(NC(=O)NC(=O)c3c(F)cccc3F)cc2)c1 | 30% | 50% |  | 10% |  | 0% | 60% | 90% |  |  |  | Activity (Mythimna separata [19]): 100%; Activity (Mythimna separata [1]): 90% |
| CC(C)(C)O/N=C/c1ccc(NC(=O)NC(=O)c2c(F)cccc2F)c(F)c1 |  |  | 100% |  |  |  |  |  | 100% |  | 90% | LC50 (Spodoptera exigua): 3.37 µg/mL (≈ 8.57 µM); LC50 (Plutella xylostella): 0.57 µg/mL (≈ 1.45 µM); LC50 (Ostrinia nubilalis): 10 µg/mL (≈ 25.5 µM); Activity (Mythimna separata [22]): 10% |
| CC(C)(C)O/N=C/Cc1ccc(NC(=O)NC(=O)c2c(F)cccc2F)cc1 | 100% | 100% |  | 80% |  |  |  |  |  |  |  |  |
| CC(C)(C)O/N=C/c1ccccc1NC(=O)NC(=O)c1c(F)cccc1F |  |  |  |  |  |  |  |  |  |  |  | Activity (Mythimna separata [19]): 0% |
| Cc1cc(C)cc(C(=O)O/N=C/c2ccc(NC(=O)NC(=O)c3c(F)cccc3F)cc2)c1 | 100% |  | 0% | 100% | 90% | 90% | 100% | 100% |  |  |  | Activity (Aedes aegypti [17]): 90%; Activity (Aedes aegypti [18]): 10% |
| CC(C)O/N=C/c1ccc(NC(=O)NC(=O)c2c(F)cccc2F)cc1Cl |  |  | 90% |  |  | 100% |  |  | 10% | 100% | 0% | Activity (Aedes aegypti [13]): 10%; Activity (Aedes aegypti [14]): 100%; Activity (Aedes aegypti [15]): 30% |
| CC(C)O/N=C/c1ccc(NC(=O)NC(=O)c2c(F)cccc2F)c(Cl)c1 |  |  | 90% |  |  | 100% |  | 100% | 10% | 100% | 0% | Activity (Aedes aegypti [14]): 30% |
| O=C(NC(=O)c1c(F)cccc1F)Nc1ccc(/C=N/Oc2ccc(Cl)cc2)cc1 |  |  | 80% | 100% |  | 100% |  |  | 0% |  |  | Activity (Aedes aegypti [13]): 100%; Activity (Aedes aegypti [15]): 100%; Activity (Aedes aegypti [23]): 20% |
| C/C(=N\OCc1ccccc1)c1ccc(NC(=O)NC(=O)c2c(F)cccc2F)cc1 | 80% | 90% |  | 10% |  |  |  |  |  |  |  | Activity (Aedes aegypti [7]): 0%; Activity (Aedes aegypti [20]): 0% |
| C/C(=N\OC(C)C)c1ccc(NC(=O)NC(=O)c2c(F)cccc2F)cc1 |  |  | 65% | 100% | 90% | 100% | 100% | 100% | 10% |  | 0% | Activity (Aedes aegypti [17]): 90%; Activity (Aedes aegypti [18]): 30% |
| CC(C)O/N=C/c1ccc(NC(=O)NC(=O)c2c(F)cccc2F)cc1 |  |  | 100% |  |  |  |  |  | 100% |  | 50% | Activity (Aedes aegypti [13]): 0%; Activity (Aedes aegypti [14]): 75%; Activity (Aedes aegypti [15]): 15%; Activity (Mythimna separata [22]): 0% |
| CC(C)C(=O)O/N=C/c1ccc(NC(=O)NC(=O)c2c(F)cccc2F)cc1 |  |  | 20% | 100% | 70% | 100% | 100% | 100% | 10% |  | 0% | Activity (Aedes aegypti [17]): 10%; Activity (Aedes aegypti [18]): 0% |
| N#C/C(=N\OCc1ccccc1)c1ccc(NC(=O)NC(=O)c2c(F)cccc2F)cc1 |  |  |  |  | 90% |  | 100% | 100% |  |  |  | Activity (Mythimna separata [19]): 0%; Activity (Aedes aegypti [17]): 0% |
| CC(C)O/N=C/c1ccc(NC(=O)NC(=O)c2c(F)cccc2F)c(F)c1 |  |  | 100% |  |  |  |  |  | 100% | 100% | 90% | LC50 (Spodoptera exigua): 4.32 µg/mL (≈ 11.4 µM); Activity (Aedes aegypti [13]): 20%; Activity (Mythimna separata [24]): 0%; LC50 (Plutella xylostella): 2.75 µg/mL (≈ 7.25 µM); Activity (Aedes aegypti [14]): 100%; Activity (Aedes aegypti [15]): 50%; LC50 (Ostrinia nubilalis): 7.59 µg/mL (≈ 20 µM); Activity (Aedes aegypti [16]): 10%; Activity (Mythimna separata [22]): 10% |
| O=C(NC(=O)c1c(F)cccc1F)Nc1ccc(CO/N=C(/c2ccc(Cl)cc2)C2CC2)cc1 [FLUCYCLOXURON] |  |  | 50% | 95% | 100% | 90% |  |  | 10% | 0% | 0% | LC50 (Spodoptera exigua): 102 µg/mL (≈ 210 µM); LC50 (Plutella xylostella): 72.9 µg/mL (≈ 151 µM); Activity (Aedes aegypti [17]): 100%; Activity (Aedes aegypti [18]): 15%; LC50 (Ostrinia nubilalis): 9.25 µg/mL (≈ 19.1 µM) |
